# System: MDR1 (P-glycoprotein)
# Experiment: Permeability evaluation on MDR1-MDCK II cell line
# Conditions: dog, MDCK-MDR1, pH 7.4
smiles,measurement,value
CCn1c(CO)nn(-c2cc(O[C@@H](C)C(F)(F)F)c(/C(F)=C/c3ncccc3Cl)cc2F)c1=O [Compound 5],"Papp A→B at 150 min, 2 μM",13.3 ×10⁻⁶ cm/s
same,"Papp B→A at 150 min, 2 μM",18.2 ×10⁻⁶ cm/s
same,"Papp at 150 min, 2 μM",> 5.5 ×10⁻⁶ cm/s
same,"efflux ratio at 150 min, 2 μM",1.37

# Source: patent publication US12606540B2, “Triazolone compound” (MEDSHINE DISCOVERY INC., priority 2020, dated 2026)
